Tests used:
ncp BVDV = test: Infectivity of secreted ncp BVDV on naive MDBK cells, immunofluorescence; assay type: cell-based, bovine viral diarrhea virus
Experimental: Using BVDV viral particles collected from the previous experiment (500 μl of supernatant containing secreted BVDV), the infectivity of secreted NB-DNJ-treated BVDV was determined by incubation with naïve MDBK cells for 3 days followed by immunofluorescent staining to identify BVDV proteins in infected cells. Cells were stained post-infection using an anti-BVDV NS2-NS3 monoclonal antibody, followed by a FITC-labelled secondary antibody. Experiments were performed in duplicate using 6-well plates. The percent viral infectivity was calculated by the number of infected cells, identified by the presence of non-structural BVDV proteins, divided by the total cell count determined by DAPI staining of cell nuclei. Results were also normalized to account for decreased or increased viral titres in each sample (results from BVDV secretion experiments).

CHO cells = test: Liposome uptake (Rh-PE) and intracellular calcein dequenching; assay type: cell-based, Chinese hamster
Experimental: The effects of different DNJ compounds on the cellular uptake and intracellular release, when encapsulated inside DCPP liposomes, was determined by diluting compounds in 80-mM calcein and incorporating Rh-PE in liposome membranes as previously described, with the final liposome composition being DOPE:CHEMS:PEG-PE:Rh-PE (DCPP-Rh, 6:4:0.3:0.1) Liposomes encapsulating calcein alone, 10-μM DNJ, 1-mM DNJ, 10-μM NB-DNJ, 1-mM NB-DNJ, 10-μM NN-DNJ, or 1-mM NN-DNJ, were incubated with CHO cells for 45 min before liposomes were removed and cells were washed twice in 1×PBS. Cells were then analyzed in a fluorometer to measure calcein dequenching (λex=490 and λem=520 nm) and rhodamine fluorescence (λex=584 and λem=612 nm). Data represent the mean±S.D. obtained from triplicates of four independent experiments, where mean rhodamine fluorescence values reflect the binding and uptake of liposomes and the mean calcein fluorescence reflects the intracellular dequenching of the dye (i.e. dye released from liposomes into intracellular compartments). Results are expressed as the percent fluorescence measured following incubation with DNJ-containing liposomes as compared to the calcein/PBS-only liposome control (=100% on the x axis).
The calculated ratio of calcein to rhodamine fluorescence is taken as a measure of the amount of aqueous marker released per cell-associated liposome, and represents the efficiency of intracellular delivery.

HIV-1 isolate: 93IN101 = test: p24 secretion of HIV-1-infected PBMCs; assay type: cell-based; conditions: for % p24 secretion Week 1-rb / % p24 secretion Week 2-rb / % p24 secretion Week 3-rb / % p24 secretion Week 4-rb: treatment removed 2 weeks
Experimental: (§1) Clearance of HIV-1 primary isolates from infected human cells by NB-DNJ was assessed using phytohemagglutinin (PHA)-activated peripheral blood mononuclear cells (PBMCs) as indicator cells and the determination of p24 antigen production as the end point.
(§2) PBMCs from four normal (uninfected) donors were isolated, pooled, and stimulated with PHA (5 μg/ml) for 48 h followed by PHA plus interleukin-2 (40 U/ml) for 72 h in RPMI 1640 medium containing 10% heat-inactivated fetal bovine serum (FBS), 100 U of penicillin per ml, 100 μg of streptomycin per ml, and 2 mM L-glutamine. All experiments were performed in 96-well microtiter plates. To infect cells, 100 μl of PHA-activated PBMCs (5×10^5/ml) was added to each well, after which an equal volume containing 100 50% tissue culture infective doses (TCID50) of primary isolate stock was added. After an overnight incubation, the cells were washed three times with tissue culture medium, and finally re-suspended in medium containing the appropriate liposome treatment or free NB-DNJ. On day 7, approximately 10-30% of the culture volume containing secreted HIV-1 virions was used to infect naïve PBMCs for a second round of infection and treatment (volume transferred was calculated to be the volume necessary for the untreated control of that isolate to infect naïve cells at a TCID50=100). Rounds of treatment and infection of naïve cells were continued over four weeks, and at every time point cellular supernatant containing secreted virions was isolated and used in capture ELISAs to determine p24 concentration (measure of secretion). Additionally, supernatant isolated at each time point throughout treatment was used to infect naïve PBMCs (TCID50=100) for two weeks with no further treatment, which allowed for the observation of a rebound in viral activity.
(§3) PBMCs infected with 8 primary isolates (listed in Table 3) were incubated in the presence of free NB-DNJ (concentrations ranging 0-1 mM) or liposome-encapsulated NB-DNJ (0-3.75 μM, final lipid concentration of 50 μM).

HIV-1 isolate: 97USNG30 = test: p24 secretion of HIV-1-infected PBMCs; assay type: cell-based; conditions: for % p24 secretion Week 1-rb / % p24 secretion Week 2-rb / % p24 secretion Week 3-rb / % p24 secretion Week 4-rb: treatment removed 2 weeks
Experimental: as §1, §2, §3

CCCCN1C[C@H](O)[C@@H](O)[C@H](O)[C@H]1CO [NB-DNJ, N-butyl-1,5-dideoxy-1,5-imino-D-glucitol]
effect on BVDV infectivity (ncp BVDV; 750 nM added freely to the medium): little to no effect
naive MDBK cells infected by viral progeny (ncp BVDV; 750 nM delivered via DCPP liposomes): less than 1%
antiviral effect vs controls (ncp BVDV; 750 nM in DCPP liposomes): over 20 fold
naive MDBK cells infected by viral progeny (ncp BVDV; free, up to 750 nM): approximately 20%
Efficiency (calcein/rhodamine, AU) (CHO cells; 10 μM encapsulated in DCPP liposomes): 21.7 ± 1.5 AU
increase of efficiency of intracellular delivery (CHO cells; 10 μM in DCPP liposomes): approximately 2 fold
Efficiency (calcein/rhodamine, AU) (CHO cells; 1 mM encapsulated in DCPP liposomes): 28.4 ± 2.4 AU
increase of efficiency of intracellular delivery (CHO cells; 1 mM in DCPP liposomes): ~3 fold
increase in dequenched calcein (CHO cells; 1-mM formulation in DCPP-Rh liposomes): ~2.3 fold
increase in dequenched calcein (CHO cells; 10-μM formulation in DCPP-Rh liposomes): ~1.8 fold
decrease in secretion (HIV-1 isolate: 93IN101; 1 mM free in medium, first week): 50%
% p24 secretion Week 1 (HIV-1 isolate: 93IN101; NB-DNJ 250 uM): 106%
% p24 secretion Week 2 (HIV-1 isolate: 93IN101; NB-DNJ 250 uM): 81%
% p24 secretion Week 3 (HIV-1 isolate: 93IN101; NB-DNJ 250 uM): 78%
% p24 secretion Week 4 (HIV-1 isolate: 93IN101; NB-DNJ 250 uM): 66%
% p24 secretion Week 1-rb (HIV-1 isolate: 93IN101; NB-DNJ 250 uM): 96%
% p24 secretion Week 2-rb (HIV-1 isolate: 93IN101; NB-DNJ 250 uM): 88%
% p24 secretion Week 3-rb (HIV-1 isolate: 93IN101; NB-DNJ 250 uM): 81%
% p24 secretion Week 4-rb (HIV-1 isolate: 93IN101; NB-DNJ 250 uM): 72%
% p24 secretion Week 1 (HIV-1 isolate: 93IN101; NB-DNJ 500 uM): 75%
% p24 secretion Week 2 (HIV-1 isolate: 93IN101; NB-DNJ 500 uM): 45%
% p24 secretion Week 3 (HIV-1 isolate: 93IN101; NB-DNJ 500 uM): 7%
% p24 secretion Week 4 (HIV-1 isolate: 93IN101; NB-DNJ 500 uM): 2%
% p24 secretion Week 1-rb (HIV-1 isolate: 93IN101; NB-DNJ 500 uM): 88%
% p24 secretion Week 2-rb (HIV-1 isolate: 93IN101; NB-DNJ 500 uM): 37%
% p24 secretion Week 3-rb (HIV-1 isolate: 93IN101; NB-DNJ 500 uM): 11%
% p24 secretion Week 4-rb (HIV-1 isolate: 93IN101; NB-DNJ 500 uM): 0%
% p24 secretion Week 1 (HIV-1 isolate: 93IN101; NB-DNJ 1000 uM): 67%
% p24 secretion Week 2 (HIV-1 isolate: 93IN101; NB-DNJ 1000 uM): 17%
% p24 secretion Week 3 (HIV-1 isolate: 93IN101; NB-DNJ 1000 uM): 3%
% p24 secretion Week 4 (HIV-1 isolate: 93IN101; NB-DNJ 1000 uM): 0%
% p24 secretion Week 1-rb (HIV-1 isolate: 93IN101; NB-DNJ 1000 uM): 51%
% p24 secretion Week 2-rb (HIV-1 isolate: 93IN101; NB-DNJ 1000 uM): 4%
% p24 secretion Week 3-rb (HIV-1 isolate: 93IN101; NB-DNJ 1000 uM): 1%
% p24 secretion Week 4-rb (HIV-1 isolate: 93IN101; NB-DNJ 1000 uM): 0%
% p24 secretion Week 1 (HIV-1 isolate: 97USNG30; NB-DNJ 250 uM): 96%
% p24 secretion Week 2 (HIV-1 isolate: 97USNG30; NB-DNJ 250 uM): 102%
% p24 secretion Week 3 (HIV-1 isolate: 97USNG30; NB-DNJ 250 uM): 100%
% p24 secretion Week 4 (HIV-1 isolate: 97USNG30; NB-DNJ 250 uM): 95%
% p24 secretion Week 1-rb (HIV-1 isolate: 97USNG30; NB-DNJ 250 uM): 112%
% p24 secretion Week 2-rb (HIV-1 isolate: 97USNG30; NB-DNJ 250 uM): 109%
% p24 secretion Week 3-rb (HIV-1 isolate: 97USNG30; NB-DNJ 250 uM): 97%
% p24 secretion Week 4-rb (HIV-1 isolate: 97USNG30; NB-DNJ 250 uM): 101%
% p24 secretion Week 1 (HIV-1 isolate: 97USNG30; NB-DNJ 500 uM): 74%
% p24 secretion Week 2 (HIV-1 isolate: 97USNG30; NB-DNJ 500 uM): 45%
% p24 secretion Week 3 (HIV-1 isolate: 97USNG30; NB-DNJ 500 uM): 8%
% p24 secretion Week 4 (HIV-1 isolate: 97USNG30; NB-DNJ 500 uM): 3%
% p24 secretion Week 1-rb (HIV-1 isolate: 97USNG30; NB-DNJ 500 uM): 82%
% p24 secretion Week 2-rb (HIV-1 isolate: 97USNG30; NB-DNJ 500 uM): 19%
% p24 secretion Week 3-rb (HIV-1 isolate: 97USNG30; NB-DNJ 500 uM): 7%
% p24 secretion Week 4-rb (HIV-1 isolate: 97USNG30; NB-DNJ 500 uM): 1%
% p24 secretion Week 1 (HIV-1 isolate: 97USNG30; NB-DNJ 1000 uM): 46%
% p24 secretion Week 2 (HIV-1 isolate: 97USNG30; NB-DNJ 1000 uM): 9%
% p24 secretion Week 3 (HIV-1 isolate: 97USNG30; NB-DNJ 1000 uM): 0%
% p24 secretion Week 4 (HIV-1 isolate: 97USNG30; NB-DNJ 1000 uM): 0%
% p24 secretion Week 1-rb (HIV-1 isolate: 97USNG30; NB-DNJ 1000 uM): 53%
% p24 secretion Week 2-rb (HIV-1 isolate: 97USNG30; NB-DNJ 1000 uM): 3%
% p24 secretion Week 3-rb (HIV-1 isolate: 97USNG30; NB-DNJ 1000 uM): 0%
% p24 secretion Week 4-rb (HIV-1 isolate: 97USNG30; NB-DNJ 1000 uM): 0%
